Legend:
[1] = system: cell line panel (leukemia, non-small-cell lung cancer, colon, CNS, melanoma, ovarian, renal, prostate and breast cancers); assay: SRB growth screen, whole cell line panel; format: cell-based
Description: The screening assay is performed on 96-well microtitre plates. […] Duplicate wells are prepared for all concentrations; "time-zero" and "nodrug" controls are also provided for each test. […] One hundred microliters of SRB solution (0.4% w/v in 1% acetic acid) is added to each microtitre well and incubated for 10 minutes at room temperature.
The response parameters GI50 and LC50 are interpolated values representing the concentrations at which the percentage growth (PG) is +50 and -50 respectively:
GI50 is the concentration for which the PG=+50.
TGI is the concentration for which PG=0.
LC50 is the concentration for which the PG=-50. […] This is interpreted as cytotoxicity.
The data represented in Table I is graphically represented in FIGS. 1a and 1b through FIGS. 9a and 9b. […] The following is an example of how the information in Table I and in the Figures is interpreted.

HS 578T = assay: SRB growth screen, breast cancer HS 578T; settings: Homo sapiens, 48 h
tumor models = settings: cited from earlier work

Compound	potency as compared to paclitaxel ([1]; on the whole, all cell lines)	Log10 TGI, Range ([1]; range over cell lines (log10 units))	GI50 (HS 578T; read-out: Log10 GI50 (converted))	CC50 (HS 578T; read-out: Log10 LC50 (converted))	IC (TGI) (HS 578T; read-out: Log10 TGI)	activity in model tumor systems (tumor models)
CC(=O)O[C@H]1C(=O)[C@@]2(C)[C@H]([C@H](OC(=O)c3ccccc3)[C@]3(O)C[C@H](OC(=O)[C@H](O)[C@@H](NC(=O)C4(C)OC4C)c4ccccc4)C(C)=C1C3(C)C)[C@]1(OC(C)=O)CO[C@@H]1C[C@@H]2O (stereo partly drawn) [Ceph-epoxide, cephalomannine epoxide]	equivalent to and in many instances greater than that of paclitaxel's	4.00	< 10 nM	> 100000 nM	55 nM	–
CC(=O)O[C@H]1C(=O)[C@@]2(C)[C@H]([C@H](OC(=O)c3ccccc3)[C@]3(O)C[C@H](OC(=O)[C@H](O)[C@@H](NC(=O)c4ccccc4)c4ccccc4)C(C)=C1C3(C)C)[C@]1(OC(C)=O)CO[C@@H]1C[C@@H]2O [Paclitaxel, paclitaxel, reference compound]	–	–	–	–	–	excellent activity

From patent US5892063A (Hauser, Inc., priority 1997, dated 1999)
